From the supplement of paper PMC10307832

Columns and labels:
Assay in all cases: relative viability (nuclei count vs DMSO), 5 days (fraction); higher = more cells survive
NCI-H838 = system: NCI-H838
Method in brief: (§1)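 One day after seeding in 1536-well plates, lung cancer cell lines were dosed by pin tool. Dosing was either single-drug or a fixed anchor-drug dose plus five library-drug doses (not always all listed) in √10 steps. After 5 days, nuclei were stained in one fix-and-stain step and counted on 4× images, and relative viability is the nuclei count of treated wells over that of vehicle wells, given as the median of duplicate plates.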

PC-3 [JPC-3] = system: PC-3 [JPC-3]
Method in brief: as §1

NCI-H650 = system: NCI-H650
Method in brief: as §1

EBC-1 = system: EBC-1
Method in brief: as §1

RERF-LC-KJ = system: RERF-LC-KJ
Method in brief: as §1

A549 = system: A549
Method in brief: as §1

NCI-H1651 = system: NCI-H1651
Method in brief: as §1

NCI-H520 = system: NCI-H520
Method in brief: as §1

Calu-6 = system: Calu-6
Method in brief: as §1

IA-LM = system: IA-LM
Method in brief: as §1

NCI-H1703 = system: NCI-H1703
Method in brief: as §1

NCI-H1299 = system: NCI-H1299
Method in brief: as §1

NCI-H1944 = system: NCI-H1944
Method in brief: as §1

Cc1sc2c(c1C)C(c1ccc(Cl)cc1)=N[C@@H](CC(=O)OC(C)(C)C)c1nnc(C)n1-2 [JQ1] + CS(=O)(=O)CCNCc1ccc(-c2ccc3ncnc(Nc4ccc(OCc5cccc(F)c5)c(Cl)c4)c3c2)o1 [Lapatinib] (partner 2 µM)
relative viability (NCI-H838; first compound 0.04 µM): 0.991 | relative viability (NCI-H838; first compound 0.1265 µM): 0.462 | relative viability (NCI-H838; first compound 0.4 µM): 0.454 | relative viability (NCI-H838; first compound 1.265 µM): 0.237 | relative viability (NCI-H838; first compound 4 µM): 0.191 | relative viability (PC-3 [JPC-3]; first compound 0.04 µM): 0.488 | relative viability (PC-3 [JPC-3]; first compound 0.1265 µM): 0.529 | relative viability (PC-3 [JPC-3]; first compound 0.4 µM): 0.432 | relative viability (PC-3 [JPC-3]; first compound 1.265 µM): 0.412 | relative viability (PC-3 [JPC-3]; first compound 4 µM): 0.411 | relative viability (NCI-H650; first compound 0.04 µM): 0.959 | relative viability (NCI-H650; first compound 0.1265 µM): 0.527 | relative viability (NCI-H650; first compound 0.4 µM): 0.647 | relative viability (NCI-H650; first compound 1.265 µM): 0.259 | relative viability (NCI-H650; first compound 4 µM): 0.295 | relative viability (EBC-1; first compound 0.04 µM): 0.205 | relative viability (EBC-1; first compound 0.1265 µM): 0.208 | relative viability (EBC-1; first compound 0.4 µM): 0.172 | relative viability (EBC-1; first compound 1.265 µM): 0.152 | relative viability (EBC-1; first compound 4 µM): 0.148 | relative viability (RERF-LC-KJ; first compound 0.04 µM): 0.807 | relative viability (RERF-LC-KJ; first compound 0.1265 µM): 0.856 | relative viability (RERF-LC-KJ; first compound 0.4 µM): 0.89 | relative viability (RERF-LC-KJ; first compound 1.265 µM): 0.781 | relative viability (RERF-LC-KJ; first compound 4 µM): 0.595 | relative viability (A549; first compound 0.04 µM): 0.923 | relative viability (A549; first compound 0.1265 µM): 0.902 | relative viability (A549; first compound 0.4 µM): 1.04 | relative viability (A549; first compound 1.265 µM): 0.553 | relative viability (A549; first compound 4 µM): 0.358 | relative viability (NCI-H1651; first compound 0.04 µM): 0.656 | relative viability (NCI-H1651; first compound 0.1265 µM): 0.706 | relative viability (NCI-H1651; first compound 0.4 µM): 0.481 | relative viability (NCI-H1651; first compound 1.265 µM): 0.365 | relative viability (NCI-H1651; first compound 4 µM): 0.408 | relative viability (NCI-H520; first compound 0.04 µM): 0.874 | relative viability (NCI-H520; first compound 0.1265 µM): 0.895 | relative viability (NCI-H520; first compound 0.4 µM): 0.716 | relative viability (NCI-H520; first compound 1.265 µM): 0.264 | relative viability (NCI-H520; first compound 4 µM): 0.243 | relative viability (Calu-6; first compound 0.04 µM): 1.11 | relative viability (Calu-6; first compound 0.1265 µM): 0.9 | relative viability (Calu-6; first compound 0.4 µM): 0.999 | relative viability (Calu-6; first compound 1.265 µM): 0.598 | relative viability (Calu-6; first compound 4 µM): 0.564 | relative viability (IA-LM; first compound 0.04 µM): 0.63 | relative viability (IA-LM; first compound 0.1265 µM): 0.32 | relative viability (IA-LM; first compound 0.4 µM): 0.123 | relative viability (IA-LM; first compound 1.265 µM): 0.0937 | relative viability (IA-LM; first compound 4 µM): 0.116 | relative viability (NCI-H1703; first compound 0.04 µM): 1.07 | relative viability (NCI-H1703; first compound 0.1265 µM): 0.764 | relative viability (NCI-H1703; first compound 0.4 µM): 1.2 | relative viability (NCI-H1703; first compound 1.265 µM): 0.47 | relative viability (NCI-H1703; first compound 4 µM): 0.432 | relative viability (NCI-H1299; first compound 0.04 µM): 0.975 | relative viability (NCI-H1299; first compound 0.1265 µM): 0.802 | relative viability (NCI-H1299; first compound 0.4 µM): 0.837 | relative viability (NCI-H1299; first compound 1.265 µM): 0.391 | relative viability (NCI-H1299; first compound 4 µM): 0.316 | relative viability (NCI-H1944; first compound 0.04 µM): 0.79 | relative viability (NCI-H1944; first compound 0.1265 µM): 0.543 | relative viability (NCI-H1944; first compound 0.4 µM): 0.614 | relative viability (NCI-H1944; first compound 1.265 µM): 0.584 | relative viability (NCI-H1944; first compound 4 µM): 0.454

Cc1sc2c(c1C)C(c1ccc(Cl)cc1)=N[C@@H](CC(=O)OC(C)(C)C)c1nnc(C)n1-2 [JQ1] + CS(=O)(=O)N1CCN(Cc2cc3nc(-c4cccc5[nH]ncc45)nc(N4CCOCC4)c3s2)CC1 [Pictilisib] (partner 1 µM)
relative viability (NCI-H838; first compound 0.04 µM): 0.397 | relative viability (NCI-H838; first compound 0.1265 µM): 0.3 | relative viability (NCI-H838; first compound 0.4 µM): 0.319 | relative viability (NCI-H838; first compound 1.265 µM): 0.208 | relative viability (NCI-H838; first compound 4 µM): 0.232 | relative viability (PC-3 [JPC-3]; first compound 0.04 µM): 0.69 | relative viability (PC-3 [JPC-3]; first compound 0.1265 µM): 0.727 | relative viability (PC-3 [JPC-3]; first compound 0.4 µM): 0.443 | relative viability (PC-3 [JPC-3]; first compound 1.265 µM): 0.501 | relative viability (PC-3 [JPC-3]; first compound 4 µM): 0.382 | relative viability (NCI-H650; first compound 0.04 µM): 0.746 | relative viability (NCI-H650; first compound 0.1265 µM): 0.654 | relative viability (NCI-H650; first compound 0.4 µM): 0.499 | relative viability (NCI-H650; first compound 1.265 µM): 0.283 | relative viability (NCI-H650; first compound 4 µM): 0.273 | relative viability (EBC-1; first compound 0.04 µM): 0.31 | relative viability (EBC-1; first compound 0.1265 µM): 0.245 | relative viability (EBC-1; first compound 0.4 µM): 0.15 | relative viability (EBC-1; first compound 1.265 µM): 0.11 | relative viability (EBC-1; first compound 4 µM): 0.156 | relative viability (RERF-LC-KJ; first compound 0.04 µM): 0.579 | relative viability (RERF-LC-KJ; first compound 0.1265 µM): 0.661 | relative viability (RERF-LC-KJ; first compound 0.4 µM): 0.595 | relative viability (RERF-LC-KJ; first compound 1.265 µM): 0.304 | relative viability (RERF-LC-KJ; first compound 4 µM): 0.337 | relative viability (A549; first compound 0.04 µM): 0.511 | relative viability (A549; first compound 0.1265 µM): 0.421 | relative viability (A549; first compound 0.4 µM): 0.35 | relative viability (A549; first compound 1.265 µM): 0.253 | relative viability (A549; first compound 4 µM): 0.185 | relative viability (NCI-H1651; first compound 0.04 µM): 0.476 | relative viability (NCI-H1651; first compound 0.1265 µM): 0.451 | relative viability (NCI-H1651; first compound 0.4 µM): 0.335 | relative viability (NCI-H1651; first compound 1.265 µM): 0.271 | relative viability (NCI-H1651; first compound 4 µM): 0.245 | relative viability (NCI-H520; first compound 0.04 µM): 0.282 | relative viability (NCI-H520; first compound 0.1265 µM): 0.283 | relative viability (NCI-H520; first compound 0.4 µM): 0.253 | relative viability (NCI-H520; first compound 1.265 µM): 0.174 | relative viability (NCI-H520; first compound 4 µM): 0.214 | relative viability (Calu-6; first compound 0.04 µM): 0.972 | relative viability (Calu-6; first compound 0.1265 µM): 0.826 | relative viability (Calu-6; first compound 0.4 µM): 0.897 | relative viability (Calu-6; first compound 1.265 µM): 0.468 | relative viability (Calu-6; first compound 4 µM): 0.372 | relative viability (IA-LM; first compound 0.04 µM): 0.278 | relative viability (IA-LM; first compound 0.1265 µM): 0.103 | relative viability (IA-LM; first compound 0.4 µM): 0.0998 | relative viability (IA-LM; first compound 1.265 µM): 0.0879 | relative viability (IA-LM; first compound 4 µM): 0.0786 | relative viability (NCI-H1703; first compound 0.04 µM): 0.234 | relative viability (NCI-H1703; first compound 0.1265 µM): 0.212 | relative viability (NCI-H1703; first compound 0.4 µM): 0.238 | relative viability (NCI-H1703; first compound 1.265 µM): 0.21 | relative viability (NCI-H1703; first compound 4 µM): 0.216 | relative viability (NCI-H1299; first compound 0.04 µM): 0.691 | relative viability (NCI-H1299; first compound 0.1265 µM): 0.482 | relative viability (NCI-H1299; first compound 0.4 µM): 0.219 | relative viability (NCI-H1299; first compound 4 µM): 0.104 | relative viability (NCI-H1944; first compound 0.04 µM): 0.357 | relative viability (NCI-H1944; first compound 0.1265 µM): 0.332 | relative viability (NCI-H1944; first compound 0.4 µM): 0.311 | relative viability (NCI-H1944; first compound 1.265 µM): 0.288 | relative viability (NCI-H1944; first compound 4 µM): 0.307
